Measurements published in publication PMC6001238, “Iterative Chemical Engineering of Vancomycin Leads to Novel Vancomycin Analogs With a High in Vitro Therapeutic Index” (Frontiers in Microbiology, 2018).
≈ marks a conversion by molar mass, not a printed value.

Experiments:
[1] = system: E. faecalis VSE 1; experiment: MIC, broth microdilution, vancomycin-sensitive E. faecalis (VSE 1); assay type: cell-based, Enterococcus faecalis; settings: for MIC: Enterococcus faecalis VSE 1 (vancomycin-sensitive), read-out: MIC; for MIC-fold improvement vs. vancomycin: VSE 1, ratio of MIC of vancomycin and MIC of analogue
In short: (§1)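 Inhibitory concentrations were read by the CLSI broth microdilution procedure, with water and sterile broth as controls. One experiment added vancomycin (10 μM final) together with each analogue or reference antibiotic.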

[2] = system: E. faecalis VRE 6; experiment: MIC, broth microdilution, vancomycin-resistant E. faecalis VRE 6 (VanA); assay type: cell-based, Enterococcus faecalis; settings: for MIC: Enterococcus faecalis VRE 6 (vancomycin-resistant), read-out: MIC; for MIC-fold improvement vs. vancomycin: VRE 6, ratio of MIC of vancomycin and MIC of analogue
In short: as §1

[3] = system: E. faecalis VRE 53; experiment: MIC, broth microdilution, vancomycin-resistant E. faecalis VRE 53 (VanA); assay type: cell-based, Enterococcus faecalis; settings: for MIC: Enterococcus faecalis VRE 53 (vancomycin-resistant), read-out: MIC; for MIC-fold improvement vs. vancomycin: VRE 53, ratio of MIC of vancomycin and MIC of analogue
In short: as §1

[4] = system: E. faecalis VRE 29; experiment: MIC, broth microdilution, vancomycin-resistant E. faecalis VRE 29 (VanA); assay type: cell-based, Enterococcus faecalis; settings: for MIC: Enterococcus faecalis VRE 29 (vancomycin-resistant), read-out: MIC; for MIC-fold improvement vs. vancomycin: VRE 29, ratio of MIC of vancomycin and MIC of analogue
In short: as §1

[5] = system: E. faecalis VRE 37; experiment: MIC, broth microdilution, vancomycin-resistant E. faecalis VRE 37 (VanA); assay type: cell-based, Enterococcus faecalis; settings: for MIC: Enterococcus faecalis VRE 37 (vancomycin-resistant), read-out: MIC
In short: as §1

[6] = system: Murine leukemia (L1210) cells; experiment: Cytostatic activity, L1210 cell proliferation; assay type: cell-based; settings: mean ± SD of three experiments; highest concentration tested 250 µM; 2 days; read-out: Toxicity (IC50) L1210
In short: (§2)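 Test compounds, serially diluted, received an equal volume of cell suspension at 300,000–500,000 cells/mL. After 37°C incubation (2 days for L1210, 3 for CEM, 4 for HeLa), cells were enumerated by Coulter counting and 50%-inhibitory concentrations calculated per cell type.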

[7] = system: human T-lymphocyte (CEM) cells; experiment: Cytostatic activity, CEM cell proliferation; assay type: cell-based; settings: mean ± SD of three experiments; highest concentration tested 250 µM; 3 days; read-out: Toxicity (IC50) CEM
In short: as §2

[8] = system: human cervix carcinoma (HeLa) cells; experiment: Cytostatic activity, HeLa cell proliferation; assay type: cell-based; settings: mean ± SD of three experiments; highest concentration tested 250 µM; 4 days; read-out: Toxicity (IC50) HeLa
In short: as §2

[9] = system: L1210, CEM and HeLa cell lines; experiment: Cytostatic activity, average or summary over L1210, CEM and HeLa; assay type: cell-based; settings: average of L1210, CEM and HeLa; read-out: Toxicity (IC50) Average
In short: as §2

[10] = system: S. aureus VSSA (ATCC 6538); experiment: MIC, broth microdilution, vancomycin-sensitive S. aureus (VSSA/MSSA, ATCC 6538); assay type: cell-based, Staphylococcus aureus; settings: for MIC: Staphylococcus aureus VSSA, read-out: MIC; for MIC-fold improvement vs. vancomycin: VSSA, ratio of MIC of vancomycin and MIC of analogue
In short: as §1

[11] = system: S. aureus VISA/HIP5827; experiment: MIC, broth microdilution, vancomycin-intermediate S. aureus VISA HIP5827; assay type: cell-based, Staphylococcus aureus; settings: for MIC: Staphylococcus aureus VISA/HIP5827, read-out: MIC; for MIC-fold improvement vs. vancomycin: VISA/HIP5827, ratio of MIC of vancomycin and MIC of analogue
In short: as §1

[12] = system: S. aureus VRSA; experiment: MIC, broth microdilution, vancomycin-resistant S. aureus (VRSA); assay type: cell-based, Staphylococcus aureus; settings: for MIC: Staphylococcus aureus VRSA, read-out: MIC; for MIC-fold improvement vs. vancomycin: VRSA, ratio of MIC of vancomycin and MIC of analogue
In short: as §1

[13] = system: MRSA KS2; experiment: MIC, broth microdilution, MRSA KS2; assay type: cell-based, Staphylococcus aureus; settings: for MIC-fold improvement vs. vancomycin: MRSA KS2, ratio of MIC of vancomycin and MIC of analogue; for MIC: Staphylococcus aureus MRSA KS2, read-out: MIC
In short: as §1

[14] = system: MRSA KS6; experiment: MIC, broth microdilution, MRSA KS6; assay type: cell-based, Staphylococcus aureus; settings: for MIC-fold improvement vs. vancomycin: MRSA KS6, ratio of MIC of vancomycin and MIC of analogue; for MIC: Staphylococcus aureus MRSA KS6, read-out: MIC
In short: as §1

[15] = system: MRSA KS89; experiment: MIC, broth microdilution, MRSA KS89; assay type: cell-based, Staphylococcus aureus; settings: for MIC-fold improvement vs. vancomycin: MRSA KS8, ratio of MIC of vancomycin and MIC of analogue; for MIC: Staphylococcus aureus MRSA KS8, read-out: MIC
In short: as §1

[16] = system: MRSA KS1; experiment: MIC, broth microdilution, MRSA KS1; assay type: cell-based, Staphylococcus aureus; settings: for MIC-fold improvement vs. vancomycin: MRSA KS1, ratio of MIC of vancomycin and MIC of analogue; for MIC: Staphylococcus aureus MRSA KS1, read-out: MIC
In short: as §1

[17] = system: Clostridium difficile ATJ ribotype 014/20; experiment: MIC, plate drop assay, C. difficile ATJ ribotype 014/20; assay type: cell-based; settings: for MIC-fold improvement vs. vancomycin: C. difficile ATJ ribotype 014/20
Description: (§3) Bacterial lawns of both C. difficile strains were prepared by adding 0.5 mL overnight culture to 8 mL sloppy BHI agar (0.4% agar) supplemented with 1.5 g/L CaCl2⋅2H2O and 81.2 g/L MgCl2⋅6H2O, and pouring the mixture into Petri plates. A twofold dilution series of the selected vancomycin analogs, vancomycin ([…]) and daptomycin (25 μM) was spotted (10 μL) on the bacterial lawn. Spots were air-dried and the plates were incubated overnight at 37°C in an anaerobic cabinet. Ultrapure water was included as negative control. The assay was performed in triplicate. Inhibition was observed by cleared spots.

[18] = system: Clostridium difficile AIU ribotype 027; experiment: MIC, plate drop assay, C. difficile AIU ribotype 027; assay type: cell-based; settings: for MIC-fold improvement vs. vancomycin: C. difficile AIU ribotype 027
Description: as §3

Structure (SMILES)	MIC [1] [µM]	MIC-fold improvement vs. vancomycin [1]	MIC [2] [µM]	MIC-fold improvement vs. vancomycin [2]	MIC [3] [µM]	MIC-fold improvement vs. vancomycin [3]	MIC [4] [µM]	MIC-fold improvement vs. vancomycin [4]	MIC [5] [µM]	IC50 [6] [µM]	IC50 [7] [µM]	IC50 [8] [µM]	IC50 [9] [µM]	MIC [10] [µM]	MIC-fold improvement vs. vancomycin [10]	MIC [11] [µM]	MIC-fold improvement vs. vancomycin [11]	MIC [12] [µM]	MIC-fold improvement vs. vancomycin [12]	MIC-fold improvement vs. vancomycin [13]	further results
CNC(CC(C)C)C(=O)NC1C(=O)NC(CC(N)=O)C(=O)NC2C(=O)NC3C(=O)NC(C(=O)NC(C(=O)NCCCNC(=O)c4cc5ccccc5o4)c4cc(O)cc(O)c4-c4cc3ccc4O)C(O)c3ccc(c(Cl)c3)Oc3cc2cc(c3OC2OC(CO)C(O)C(O)C2OC2CC(C)(N)C(O)C(C)O2)Oc2ccc(cc2Cl)C1O (stereo not drawn) [Vanc-25]	0.39 (≈ 0.643 µg/mL)	4	0.78 (≈ 1.29 µg/mL)	256	25 (≈ 41.2 µg/mL)	16	6.25 (≈ 10.3 µg/mL)	64	12.5 (≈ 20.6 µg/mL)	> 250	> 250	98 ± 32	199	0.39 (≈ 0.643 µg/mL)	2	0.39 (≈ 0.643 µg/mL)	16	3.13 (≈ 5.16 µg/mL)	32	2	MIC [13]: 0.39 µM (≈ 0.643 µg/mL); MIC-fold improvement vs. vancomycin [14]: 2; MIC [14]: 0.39 µM (≈ 0.643 µg/mL); MIC-fold improvement vs. vancomycin [15]: 2; MIC [15]: 0.39 µM (≈ 0.643 µg/mL); MIC-fold improvement vs. vancomycin [16]: 2; MIC [16]: 0.39 µM (≈ 0.643 µg/mL); MIC-fold improvement vs. vancomycin [17]: 5.6; MIC-fold improvement vs. vancomycin [18]: 4
CNC(CC(C)C)C(=O)NC1C(=O)NC(CC(N)=O)C(=O)NC2C(=O)NC3C(=O)NC(C(=O)NC(C(=O)NCCCNC(=O)c4ccc5cc(OC)ccc5c4)c4cc(O)cc(O)c4-c4cc3ccc4O)C(O)c3ccc(c(Cl)c3)Oc3cc2cc(c3OC2OC(CO)C(O)C(O)C2OC2CC(C)(N)C(O)C(C)O2)Oc2ccc(cc2Cl)C1O (stereo not drawn) [Vanc-29]	0.20 (≈ 0.338 µg/mL)	8	1.56 (≈ 2.64 µg/mL)	128	25 (≈ 42.2 µg/mL)	16	6.25 (≈ 10.6 µg/mL)	64	12.5 (≈ 21.1 µg/mL)	> 250	> 250	54 ± 44	185	0.39 (≈ 0.659 µg/mL)	2	0.39 (≈ 0.659 µg/mL)	16	3.13 (≈ 5.29 µg/mL)	32	2	MIC [13]: 0.39 µM (≈ 0.659 µg/mL); MIC-fold improvement vs. vancomycin [14]: 2; MIC [14]: 0.39 µM (≈ 0.659 µg/mL); MIC-fold improvement vs. vancomycin [15]: 2; MIC [15]: 0.39 µM (≈ 0.659 µg/mL); MIC-fold improvement vs. vancomycin [16]: 2; MIC [16]: 0.39 µM (≈ 0.659 µg/mL); MIC-fold improvement vs. vancomycin [17]: 5.6; MIC-fold improvement vs. vancomycin [18]: 7
CNC(CC(C)C)C(=O)NC1C(=O)NC(CC(N)=O)C(=O)NC2C(=O)NC3C(=O)NC(C(=O)NC(C(=O)NCCCNC(=O)c4ccc(-c5ccc(F)cc5)cc4)c4cc(O)cc(O)c4-c4cc3ccc4O)C(O)c3ccc(c(Cl)c3)Oc3cc2cc(c3OC2OC(CO)C(O)C(O)C2OC2CC(C)(N)C(O)C(C)O2)Oc2ccc(cc2Cl)C1O (stereo not drawn) [Vanc-34]	0.20 (≈ 0.341 µg/mL)	8	0.39 (≈ 0.664 µg/mL)	513	12.5 (≈ 21.3 µg/mL)	32	3.13 (≈ 5.33 µg/mL)	128	6.25 (≈ 10.6 µg/mL)	42 ± 7	34 ± 2	110 ± 8	62	0.10 (≈ 0.17 µg/mL)	8	0.10 (≈ 0.17 µg/mL)	64	0.78 (≈ 1.33 µg/mL)	128	8	MIC-fold improvement vs. vancomycin ([5]; VRE 37, ratio of MIC of vancomycin and MIC of analogue): 64; MIC [13]: 0.10 µM (≈ 0.17 µg/mL); MIC-fold improvement vs. vancomycin [14]: 4; MIC [14]: 0.20 µM (≈ 0.341 µg/mL); MIC-fold improvement vs. vancomycin [15]: 4; MIC [15]: 0.20 µM (≈ 0.341 µg/mL); MIC-fold improvement vs. vancomycin [16]: 4; MIC [16]: 0.20 µM (≈ 0.341 µg/mL); MIC-fold improvement vs. vancomycin [17]: 22; MIC ([17]; C. difficile ATJ ribotype 014/20, plate drop assay): 1.56 µM (≈ 2.66 µg/mL); MIC-fold improvement vs. vancomycin [18]: 29; MIC ([18]; C. difficile AIU ribotype 027, plate drop assay): 1.56 µM (≈ 2.66 µg/mL)
